Among the data in patent publication US20240239772A1, “PROTEASE INHIBITORS AND METHODS OF USE” (The Cleveland Clinic Foundation, priority 2021, published 2024) are EC50 and IC50 values, retold here.

Like-named read-outs stand apart in the source and are kept apart here.

Assay [1] concerns SARS-CoV-2. Kind of assay: microbe, parasite or virus in culture. The assay is classed as cell-based.
In assay [2] the test system is SARS-CoV-2. Kind of assay: microbe, parasite or virus in culture. It is filed as cell-based. Conditions: read-out: CPE Inhibition Assay EC50.
In a further assay the target is SARS-CoV-2 3CLpro (Severe acute respiratory syndrome coronavirus 2 (2019-nCoV) (SARS-CoV-2), UniProt P0DTD1). As to the kind of experiment: biochemical. It is filed as biochemical. Conditions: read-out: SARS-CoV-2 IC50.
The target in a further assay is SARS-CoV-1 3CLpro (Severe acute respiratory syndrome coronavirus (SARS-CoV), UniProt P0C6X7). It is filed as biochemical.
[3] abbreviates: Severe acute respiratory syndrome coronavirus 2, Vero C1008, read-out: Plaque Reduction Assay EC50.
[4] abbreviates: Severe acute respiratory syndrome coronavirus 2, Vero C1008, 68 h.

Regarding `O=C(Cn1nnc2ccccc21)N(Cc1ccsc1)c1ccc(-c2cccnc2)cc1` [Compound 17b, 2-(1H-benzo[d][1,2,3]triazol-1-yl)-N-(4-(pyridin-3-yl)phenyl)-N-(thiophen-3-ylmethyl)acetamide, reference compound], the values for the EC50 in the assay with SARS-CoV-2 [1] (setting [3]) and with SARS-CoV-2 [2] (setting [4]) were 14.6 ± 1.22 µM and 12.1 ± 0.31 µM, respectively. Take `O=C(Cn1nnc2ccccc21)N(Cc1ccsc1)c1ccc(-c2c[nH]cn2)cc1` [Compound 21, 2-(Benzotriazol-1-yl)-N-[4-(1H-imidazol-4-yl)phenyl]-N-(3-thienylmethyl)acetamide]: the EC50 (in general, the concentration at which the effect is half-maximal) with SARS-CoV-2 [1] (setting [3]) is 1.75 ± 0.25 µM; in the assay on SARS-CoV-2 [2] (setting [4]), 1.74 ± 0.19 µM. Besides, on SARS-CoV-2 3CLpro, the IC50 (as a rule, the concentration that inhibits the measured activity by half) stood at 0.06 ± 0.01 µM. As for `O=C(Cn1nnc2ccccc21)N(CC1CCOC1)c1ccc(-c2cccnc2)cc1` (stereo not drawn) [Compound 26, 2-(1H-Benzo[d][1,2,3]triazol-1-yl)-N-(4-(pyridin-3-yl)phenyl)-N-((tetrahydrofuran-3-yl)methyl)acetamide], the concentration for half-maximal inhibition (IC50) on SARS-CoV-2 3CLpro stood at 23 ± 1.38 µM; against SARS-CoV-1 3CLpro, 20.5 ± 1.59 µM. Consider `O=C(Cn1nnc2ccccc21)N(Cc1cccc(Cl)c1)c1ccc(-c2cccnc2)cc1` [Compound 28, 2-(Benzotriazol-1-yl)-N-[(3-chlorophenyl)methyl]-N-[4-(3-pyridyl)phenyl]acetamide], for which the EC50 with SARS-CoV-2 [1] (setting [3]) came out at 11.1 ± 0.37 µM; in the assay with SARS-CoV-2 [2] (setting [4]), 7.61 ± 1.43 µM. Further, the IC50 at SARS-CoV-2 3CLpro was 0.39 ± 0.11 µM. Turning to `O=C(Cn1nnc2ccccc21)N(Cc1ccc(Cl)c(Cl)c1)c1ccc(-c2cccnc2)cc1` [Compound 30, 2-(Benzotriazol-1-yl)-N-[(3,4-dichlorophenyl)methyl]-N-[4-(3-pyridyl)phenyl]acetamide], the IC50 on SARS-CoV-2 3CLpro and against SARS-CoV-1 3CLpro was greater than 200 µM each time. `O=C(Cn1nnc2ccccc21)N(Cc1cccc(Cl)c1)c1ccc(-c2ccc[nH]c2=O)cc1` [Compound 35, 2-(1H-Benzo[d][1,2,3]triazol-1-yl)-N-(3-chlorobenzyl)-N-(4-(2-oxo-1,2-dihydropyridin-3-yl)phenyl)acetamide]: the EC50 in the assay with SARS-CoV-2 [1] (Severe acute respiratory syndrome coronavirus 2, Vero C1008, Vero E6 ACE2 cells, approximately 50 PFUs SARS-CoV-2, read-out: Plaque Reduction Assay EC50) is 16.7 ± 2.44 µM; in the assay on SARS-CoV-2 [2] (setting [4]), 8.77 ± 1.14 µM. The IC50 on SARS-CoV-2 3CLpro amounted to 0.746 ± 0.098 µM. As to `O=C(Cn1nnc2ccccc21)N(Cc1cccc(Cl)c1)c1ccc(-c2cn[nH]c2)cc1` [Compound 36, N-(4-(1H-Pyrazol-4-yl)phenyl)-2-(1H-benzo[d][1,2,3]triazol-1-yl)-N-(3-chlorobenzyl)acetamide], the EC50 in the assay on SARS-CoV-2 [1] (setting [3]) came out at 3.31 ± 0.1 µM; in the assay with SARS-CoV-2 [2] (setting [4]), 1.98 ± 0.24 µM. Further, the IC50 on SARS-CoV-2 3CLpro worked out at 0.27 ± 0.067 µM. For `COc1cc(N(Cc2cccc(Cl)c2)C(=O)Cn2nnc3ccccc32)ccc1-c1cn[nH]c1` [Compound 37, 2-(Benzotriazol-1-yl)-N-[(3-chlorophenyl)methyl]-N-[3-methoxy-4-(1H-pyrazol-4-yl)phenyl]acetamide], in that order: 3.24 ± 0.27 µM, 2.93 ± 0.28 µM and 0.328 ± 0.027 µM. Consider `COc1cc(-c2cn[nH]c2)ccc1N(Cc1cccc(Cl)c1)C(=O)Cn1nnc2ccccc21` [Compound 38, 2-(Benzotriazol-1-yl)-N-[(3-chlorophenyl)methyl]-N-[2-methoxy-4-(1H-pyrazol-4-yl)phenyl]acetamide], for which the EC50 in the assay on SARS-CoV-2 [1] (setting [3]) turned out to be 2.01 ± 0.49 µM; in the assay with SARS-CoV-2 [2] (Severe acute respiratory syndrome coronavirus 2, Vero C1008, Vero E6 ACE2 cells, 100 TCID50 SARS-CoV-2, 68 h after infection), 2.3 ± 0.33 µM. Also, the IC50 on SARS-CoV-2 3CLpro came out at 0.197 ± 0.05 µM. Turning to `O=C(Cn1nnc2ccccc21)N(Cc1cc(F)cc(F)c1)c1ccc(-c2nnc[nH]2)cc1` [Compound 106, 2-(benzotriazol-1-yl)-N-[(3,5-difluorophenyl)methyl]-N-[4-(4H-1,2,4-triazol-3-yl)phenyl]acetamide], the IC50 at SARS-CoV-2 3CLpro came to 0.94 µM. Same read-out and setting: the value for `NCCc1ccc(N(Cc2cc(F)cc(F)c2)C(=O)Cn2nnc3ccccc32)cc1` [Compound 107, N-[4-(2-aminoethyl)phenyl]-2-(benzotriazol-1-yl)-N-[(3,5-difluorophenyl)methyl]acetamide] was 0.43 µM.

For `O=C(Cn1nnc2ccccc21)N(Cc1cc(F)cc(F)c1)c1ccc(C2CCNC2)cc1` (stereo not drawn) [Compound 108, 2-(benzotriazol-1-yl)-N-[(3,5-difluorophenyl)methyl]-N-(4-pyrrolidin-3-ylphenyl)acetamide], the IC50 at SARS-CoV-2 3CLpro stood at 0.21 µM. Turning to `O=C1C=C(c2ccc(N(Cc3cc(F)cc(F)c3)C(=O)Cn3nnc4ccccc43)cc2)CN1` [Compound 109, 2-(benzotriazol-1-yl)-N-[(3,5-difluorophenyl)methyl]-N-[4-(5-oxo-1,2-dihydropyrrol-3-yl)phenyl]acetamide], at SARS-CoV-2 3CLpro, the IC50 amounted to 0.34 µM. Same read-out and setting: the value for `COc1ccc(F)cc1CN(C(=O)Cn1nnc2ccccc21)c1ccc(-c2c[nH]cn2)cc1` [Compound 110, 2-(benzotriazol-1-yl)-N-[(5-fluoro-2-methoxy-phenyl)methyl]-N-[4-(1H-imidazol-4-yl)phenyl]acetamide] was 0.2 µM; that for `COc1cc(F)cc(CN(C(=O)Cn2nnc3ccccc32)c2ccc(-c3c[nH]cn3)cc2)c1` [Compound 111, 2-(benzotriazol-1-yl)-N-[(3-fluoro-5-methoxy-phenyl)methyl]-N-[4-(1H-imidazol-4-yl)phenyl]acetamide] was 0.069 µM; that for `O=C(Cn1ccnn1)N(Cc1cc(F)cc(Cl)c1)c1ccc(-c2c[nH]cn2)cc1` [Compound 112, N-[(3-chloro-5-fluoro-phenyl)methyl]-N-[4-(1H-imidazol-4-yl)phenyl]-2-(triazol-1-yl)acetamide] was 0.41 µM.

For `O=C(Cn1ccnn1)N(Cc1cccc(Cl)c1)c1ccc(-c2cn[nH]c2)cc1` [Compound 113, N-[(3-chlorophenyl)methyl]-N-[4-(1H-pyrazol-4-yl)phenyl]-2-(triazol-1-yl)acetamide], the IC50 on SARS-CoV-2 3CLpro was found to be 8.2 µM. Turning to `CC(C)(C)CN(C(=O)Cn1nnc2ccccc21)c1ccc(-c2c[nH]cn2)cc1` [Compound 114, 2-(benzotriazol-1-yl)-N-(2,2-dimethylpropyl)-N-[4-(1H-imidazol-4-yl)phenyl]acetamide], the IC50 at SARS-CoV-2 3CLpro turned out to be 1.6 µM.

For the compound `O=C1CC(c2ccc(N(Cc3cc(F)cc(F)c3)C(=O)Cn3nnc4ccccc43)cc2)CN1` (stereo not drawn) [Compound 115, 2-(benzotriazol-1-yl)-N-[(3,5-difluorophenyl)methyl]-N-[4-(5-oxopyrrolidin-3-yl)phenyl]acetamide], on SARS-CoV-2 3CLpro, the IC50 amounted to 0.24 µM. For `O=C(Cn1nnc2ccccc21)N(Cc1ccc(Cl)c(F)c1)c1ccc(-c2c[nH]cn2)cc1` [Compound 116, 2-(benzotriazol-1-yl)-N-[(4-chloro-3-fluoro-phenyl)methyl]-N-[4-(1H-imidazol-4-yl)phenyl]acetamide], the IC50 on SARS-CoV-2 3CLpro came out at 2.5 µM. Turning to `COc1ccc(CN(C(=O)Cn2nnc3ccccc32)c2ccc(-c3c[nH]cn3)cc2)cc1F` [Compound 117, 2-(benzotriazol-1-yl)-N-[(3-fluoro-4-methoxy-phenyl)methyl]-N-[4-(1H-imidazol-4-yl)phenyl]acetamide], the IC50 on SARS-CoV-2 3CLpro is 0.97 µM. Same read-out and setting: the value for `O=C(Cn1nnc2ccccc21)N(Cc1cc(F)cc(F)c1)c1ccc(C2CNC2)cc1` [Compound 118, N-[4-(azetidin-3-yl)phenyl]-2-(benzotriazol-1-yl)-N-[(3,5-difluorophenyl)methyl]acetamide] was 0.078 µM. Take `O=C(Cn1nnc2ccccc21)N(Cc1cncc(F)c1)c1ccc(C2CNC2)cc1` [Compound 119, N-[4-(azetidin-3-yl)phenyl]-2-(benzotriazol-1-yl)-N-[(5-fluoro-3-pyridyl)methyl]acetamide]: at SARS-CoV-2 3CLpro, the IC50 was found to be 0.6 µM. On the same count and under the same terms, for `O=C(Cn1nnc2ccccc21)N(Cc1cc(F)cc(OC(F)(F)F)c1)c1ccc(-c2c[nH]cn2)cc1` [Compound 120, 2-(benzotriazol-1-yl)-N-[[3-fluoro-5-(trifluoromethoxy)phenyl]methyl]-N-[4-(1H-imidazol-4-yl)phenyl]acetamide] the value was 0.12 µM; for `O=C(Cn1nnc2ccccc21)N(Cc1cc(F)cc(Cl)c1)c1ccc(C2CNC2)cc1` [Compound 121, N-[4-(azetidin-3-yl)phenyl]-2-(benzotriazol-1-yl)-N-[(3-chloro-5-fluoro-phenyl)methyl]acetamide], 0.1 µM.

Consider `O=C(Cn1nnc2ccccc21)N(Cc1cncc(F)c1)c1ccc(C2=CCNC2)cc1` [Compound 122, 2-(benzotriazol-1-yl)-N-[4-(2,5-dihydro-1H-pyrrol-3-yl)phenyl]-N-[(5-fluoro-3-pyridyl)methyl]acetamide], for which, at SARS-CoV-2 3CLpro, the IC50 came out at 1.5 µM. On the same count and under the same terms, for `CC(=O)NCc1ccc(N(Cc2cc(F)cc(F)c2)C(=O)Cn2nnc3ccccc32)cc1` [Compound 123, N-[4-(acetamidomethyl)phenyl]-2-(benzotriazol-1-yl)-N-[(3,5-difluorophenyl)methyl]acetamide] the value was 0.78 µM; for `NCc1ccc(N(Cc2cc(F)cc(F)c2)C(=O)Cn2nnc3ccccc32)cc1` [Compound 124, N-[4-(aminomethyl)phenyl]-2-(benzotriazol-1-yl)-N-[(3,5-difluorophenyl)methyl]acetamide], 0.059 µM. As for `O=C(Nc1ccc(N(Cc2ccsc2)C(=O)Cn2nnc3ccccc32)cc1)C1CC1` [ML300, N-(4-(2-(1H-benzo[d][1,2,3]triazol-1-yl)-N-(thiophen-3-ylmethyl)acetamido)phenyl)cyclopropanecarboxamide, reference compound], the figures for the EC50 in the assay with SARS-CoV-2 [1] (setting [3]) and in the assay with SARS-CoV-2 [2] (setting [4]) were 28.2 ± 1.3 µM and 19.9 ± 6.32 µM, respectively. For the same compound, the IC50 at SARS-CoV-2 3CLpro is 4.99 ± 0.62 µM. For the compound `CCC(CC)COC(=O)[C@H](C)N[P@](=O)(OC[C@H]1O[C@@](C#N)(c2ccc3c(N)ncnn23)[C@H](O)[C@@H]1O)Oc1ccccc1` [Remdesivir, reference compound], the figures for the EC50 in the assay on SARS-CoV-2 [1] (setting [3]) and in the assay on SARS-CoV-2 [2] (setting [4]) were 0.43 ± 0.06 µM and 0.34 ± 0.01 µM, respectively.
